The text below walks through data of patent US20030109548A1, “Compositions and methods of treating iron excess” (priority 2001, published 2003).

SMILES strings stand for the structures.

Data set [1] is described as follows: Micelle formation upon mixing with FeCl3 (brightfield microscopy). The class given is physicochemical. To be noted: 0.2 M in ethanol mixed with 0.2 M FeCl3 in ethanol, 3/1 ratio, reduced to half volume. From the text:
Micelle formation. […] Also, synthesized pseudan IX, 0.2 M in ethanol, was mixed with 0.2 M FeCl3 in ethanol in a 3/1 ratio. Following reduction to half the volume using a nitrogen bubbler, micelles were observed as above. An Olympus BX-60 microscope and an Optronics DEI 750 camera were used.

For data set [2] the following is noted: isolated from filtrates of 4 to 6 week old culture of P. aeruginosa; cited from earlier work.

Consider `CCCCCCCCCc1cc(O)c2ccccc2n1` [pseudan IX, 4-hydroxy-2-nonylquinoline], for which the “micelle formation with iron” value in data set [1] is reported as “Pink micelles, albeit smaller, are also evident”. The antibiotic activity result in data set [2] was “shown to exhibit antibiotic activity”.
